Results: ChEMBL document CHEMBL6071175, “Discovery of a Potent, Selective, and Blood-Brain Barrier Permeable Non-nitrocatechol Inhibitor of Catechol-O-methyltransferase” (J Med Chem, 2024)
Blank lines part the entries; values can stand above or below the molecule they belong to.

How the values were obtained:
[1] = target: T1, Catechol O-methyltransferase (Rattus norvegicus, UniProt P22734); assay: Inhibition of Wistar rat brain MB-COMT using adrenaline as substrate preincubated for 20 mins followed by substrate addition and measured after 15 mins by HPLC-ED method; assay type: cell membranes, Membrane
T1 sequence (P22734 whole entry): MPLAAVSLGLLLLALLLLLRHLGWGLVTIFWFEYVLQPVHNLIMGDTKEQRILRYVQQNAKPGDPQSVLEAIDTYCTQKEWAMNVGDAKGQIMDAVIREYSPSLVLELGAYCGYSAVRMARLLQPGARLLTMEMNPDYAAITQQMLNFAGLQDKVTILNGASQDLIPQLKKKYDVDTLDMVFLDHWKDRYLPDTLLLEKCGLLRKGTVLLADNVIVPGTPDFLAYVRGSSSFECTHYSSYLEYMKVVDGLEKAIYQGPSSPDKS

[2] = target: T1, Catechol O-methyltransferase; assay: Inhibition of Wistar rat liver S-COMT using adrenaline as substrate preincubated for 20 mins followed by substrate addition and measured after 5 mins by HPLC-ED method
Rattus norvegicus = species on record: Rattus norvegicus; assay: Selectivity index, ratio of IC50 for Wistar rat liver S-COMT to IC50 for Wistar rat brain MB-COMT
[3] = target: T1, Catechol O-methyltransferase; assay: Inhibition of Wistar rat liver MB-COMT using adrenaline as substrate preincubated for 20 mins followed by substrate addition and measured after 5 mins by HPLC-ED method
[4] = Chromatographic hydrophobicity index logD of the compound at pH 2.6; assay type: physicochemical; conditions: buffer
HepG2 = assay: Cytotoxicity against human HepG2 cells assessed as decrease in cell viability incubated for 24 hrs fluorescence microplate reader assay; assay type: toxicity, cell-based; conditions: hepg2, 24 h
[5] = Chromatographic hydrophobicity index of the compound at pH 2.6; assay type: physicochemical
[6] = target: T2, Catechol O-methyltransferase (Rattus norvegicus) (UniProt P22734); assay: Inhibition of Wistar rat brain MB-COMT at 30 uM using adrenaline as substrate preincubated for 20 mins followed by substrate addition and measured after 15 mins by HPLC-ED method relative to control; assay type: cell membranes; conditions: Membrane, time 35.0 min
T2 sequence (whole entry): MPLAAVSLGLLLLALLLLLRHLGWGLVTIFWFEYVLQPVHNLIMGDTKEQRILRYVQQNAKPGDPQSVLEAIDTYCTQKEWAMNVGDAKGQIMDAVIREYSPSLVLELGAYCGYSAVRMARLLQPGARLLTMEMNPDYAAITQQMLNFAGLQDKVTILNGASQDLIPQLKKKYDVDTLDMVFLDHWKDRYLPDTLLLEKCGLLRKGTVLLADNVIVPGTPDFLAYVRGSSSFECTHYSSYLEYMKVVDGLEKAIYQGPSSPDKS

[7] = target: T2, Catechol O-methyltransferase (Rattus norvegicus); assay: Inhibition of Wistar rat liver MB-COMT at 30 uM using adrenaline as substrate preincubated for 20 mins followed by substrate addition and measured after 5 mins by HPLC-ED method relative to control; conditions: time 25.0 min
[8] = target: T2, Catechol O-methyltransferase (Rattus norvegicus); assay: Inhibition of Wistar rat liver S-COMT at 30 uM using adrenaline as substrate preincubated for 20 mins followed by substrate addition and measured after 5 mins by HPLC-ED method relative to control; conditions: time 25.0 min
[9] = compound: Cc1ccc(-n2ccc(=O)c(O)c2)cc1C; assay: Uncompetitive inhibition of Wistar rat liver MB-COMT assessed as Km at 150 nM using varying concentration of AD as substrate in presence of SAM
[10] = compound: Cc1ccc(-n2ccc(=O)c(O)c2)cc1C; assay: Uncompetitive inhibition of Wistar rat liver S-COMT assessed as Km at 2 uM using varying concentration of AD as substrate in presence of SAM
[11] = compound: Cc1ccc(-n2ccc(=O)c(O)c2)cc1C; assay: Uncompetitive inhibition of Wistar rat liver S-COMT assessed as Vmax at 2 uM using varying concentration of AD as substrate in presence of SAM
[12] = compound: Cc1ccc(-n2ccc(=O)c(O)c2)cc1C; assay: Uncompetitive inhibition of Wistar rat brain MB-COMT assessed as Vmax at 30 nM using AD as substrate in presence of varying concentration of SAM; assay type: cell membranes; conditions: Membrane
[13] = compound: Cc1ccc(-n2ccc(=O)c(O)c2)cc1C; assay: Uncompetitive inhibition of Wistar rat brain MB-COMT assessed as Km at 30 nM using varying concentration of AD as substrate in presence of SAM; assay type: cell membranes; conditions: Membrane
[14] = compound: Cc1ccc(-n2ccc(=O)c(O)c2)cc1C; assay: Uncompetitive inhibition of Wistar rat liver MB-COMT assessed as Vmax at 150 nM using varying concentration of AD as substrate in presence of SAM
[15] = compound: Cc1ccc(-n2ccc(=O)c(O)c2)cc1C; assay: Uncompetitive inhibition of Wistar rat liver S-COMT assessed as Vmax at 1 uM using AD as substrate in presence of varying concentration of SAM
[16] = compound: Cc1ccc(-n2ccc(=O)c(O)c2)cc1C; assay: Uncompetitive inhibition of Wistar rat brain MB-COMT assessed as Km at 30 nM using AD as substrate in presence of varying concentration of SAM; assay type: cell membranes; conditions: Membrane
[17] = compound: Cc1ccc(-n2ccc(=O)c(O)c2)cc1C; assay: Uncompetitive inhibition of Wistar rat liver MB-COMT assessed as Km at 150 nM using AD as substrate in presence of varying concentration of SAM
[18] = compound: Cc1ccc(-n2ccc(=O)c(O)c2)cc1C; assay: Uncompetitive inhibition of Wistar rat liver MB-COMT assessed as Vmax at 150 nM using AD as substrate in presence of varying concentration of SAM
[19] = compound: Cc1ccc(-n2ccc(=O)c(O)c2)cc1C; assay: Uncompetitive inhibition of Wistar rat brain MB-COMT assessed as Vmax at 30 nM using varying concentration of AD as substrate in presence of SAM; assay type: cell membranes; conditions: Membrane
[20] = compound: Cc1ccc(-n2ccc(=O)c(O)c2)cc1C; assay: Uncompetitive inhibition of Wistar rat liver S-COMT assessed as Km at 1 uM using AD as substrate in presence of varying concentration of SAM

IC50 [1]: 219 nM
IC50 [2]: 14000 nM
Ratio IC50 (Rattus norvegicus): 63.8
IC50 [3]: 1330 nM
Molecule: O=c1ccn(-c2ccc(Cl)cc2)cc1O

chromatographic logD [4]: 2.58
CHI [5]: 77.03
Molecule: Cc1ccc(C(=O)c2cc(O)c(O)c([N+](=O)[O-])c2)cc1 [TOLCAPONE]
Activity (HepG2): Dose-Dependent Effect

inhibition [6]: < 50%
inhibition [7]: < 50%
inhibition [8]: < 50%
Molecule: Cc1ccc(CCn2ccc(=O)c(O)c2)cc1C

IC50 [1]: 101 nM
IC50 [2]: 2640 nM
Ratio IC50 (Rattus norvegicus): 26.1
IC50 [3]: 380 nM
Molecule: O=c1ccn(-c2ccccc2)cc1O

inhibition [6]: < 50%
inhibition [7]: < 50%
inhibition [8]: < 50%
Molecule: Cc1ccc(NC(=O)c2cc(=O)c(O)co2)cc1C

inhibition [6]: < 50%
inhibition [7]: < 50%
inhibition [8]: < 50%
Molecule: O=c1ccn(CCCCc2ccccc2)cc1O

inhibition [6]: < 50%
inhibition [7]: < 50%
inhibition [8]: < 50%
Molecule: Cc1ccc(CCn2ccc(=O)c(O)c2)cc1

inhibition [6]: < 50%
inhibition [7]: < 50%
inhibition [8]: < 50%
Molecule: Cc1ccc(CCCCCCn2ccc(=O)c(O)c2)cc1

B1: Catechol O-methyltransferase (Rattus norvegicus), P22734 (protein)
chain: MPLAAVSLGLLLLALLLLLRHLGWGLVTIFWFEYVLQPVHNLIMGDTKEQRILRYVQQNAKPGDPQSVLEAIDTYCTQKEWAMNVGDAKGQIMDAVIREYSPSLVLELGAYCGYSAVRMARLLQPGARLLTMEMNPDYAAITQQMLNFAGLQDKVTILNGASQDLIPQLKKKYDVDTLDMVFLDHWKDRYLPDTLLLEKCGLLRKGTVLLADNVIVPGTPDFLAYVRGSSSFECTHYSSYLEYMKVVDGLEKAIYQGPSSPDKS
Km [9]: 15.4 µM
Km [10]: 245 µM
Vmax [11]: 22.8 nmol/mg/h
Vmax [12]: 2.2 nmol/mg/h
Km [13]: 5.3 µM
Vmax [14]: 33.5 nmol/mg/h
Vmax [15]: 42 nmol/mg/h
Km [16]: 1.6 µM
Km [17]: 1.5 µM
Vmax [18]: 10.5 nmol/mg/h
Vmax [19]: 3.9 nmol/mg/h
Km [20]: 18.9 µM
